Entries after “also recorded” stand apart in the source; their conditions may differ. Like-named read-outs stand apart in the source and are kept apart here.
Assays:
[1] = tested on: SK-BR-3 (ER−/PR−/HER2+) breast cancer cells; experiment: Growth inhibition of SK-BR-3 cells; type: cell-based; details: Homo sapiens, dose-response 0.32-320 μM
Description: (§1) Olaparib was chosen because it is one of a few FDA-approved chemotherapeutics for triple-negative breast cancer.
(§2) Cells were incubated for 15 minutes at 37° C.

[2] = tested on: triple-negative MDA-MB-231 breast cancer cells; experiment: cells; details: Homo sapiens
[3] = tested on: triple-negative MDA-MB-231 breast cancer cells; experiment: Growth inhibition of MDA-MB-231 cells; type: cell-based; details: for IC50: Homo sapiens; for IC50 / Growth Inhibition IC50: dose-response 0.32-320 μM
Description: as §1, §2

[4] = tested on: SK-BR-3 breast cancer cells; experiment: Cytotoxicity (cell death, propidium iodide) in SK-BR-3 cells; type: cell-based; details: for EC50: Homo sapiens, dose-response 0.32-320 μM
[5] = Cytotoxicity (cell death, propidium iodide) in MCF-10A cells; type: cell-based; details: human, MCF-10A non-cancerous breast cells
Description: To assess the selectivity of cytotoxicity for cancer cells, all drugs and compounds were screened against MCF-10A, non-cancerous breast cells.
as §2

[6] = tested on: MCF-7 (ER+/PR+/HER2−) breast cancer cells; experiment: Growth inhibition of MCF-7 cells (Hoechst 33342 fluorescence vs non-treated wells); type: cell-based; details: dose-response 0.32-320 μM
Description: as §1, §2

[7] = tested on: MCF-10A non-cancerous breast cells; experiment: Growth inhibition of MCF-10A cells (negative control line); type: cell-based; details: Homo sapiens, dose-response 0.32-320 μM
Description: as §1, §2

[8] = tested on: MCF-7 breast cancer cells; experiment: Cytotoxicity (cell death, propidium iodide) in MCF-7 cells; type: cell-based; details: for EC50: Homo sapiens, MCF7
[9] = MDA-MB-231, 24 h, read-out: Cytotoxicity EC50
[10] = MDA-MB-231, 72 h, read-out: Cytotoxicity EC50
[11] = Homo sapiens, MCF7, 24 h, MCF-7, 24 h exposure
[12] = Homo sapiens, MCF7, 72 h, MCF-7, 72 h exposure
[13] = MCF-7, 24 h exposure, dose-response 0.32-320 μM, read-out: Cytotoxicity EC50
[14] = MCF-7, 72 h exposure, dose-response 0.32-320 μM, read-out: Cytotoxicity EC50
[15] = SK-BR-3, 72 h / after the first 24 h
[16] = MDA-MB-231, read-out: cytotoxic EC50

Row | Structure (SMILES) | IC50 ([1]; SK-BR-3, 24 h exposure) [µM] | IC50 ([1]; SK-BR-3, 72 h exposure) [µM] | EC50 [2, 9] [µM] | EC50 [2, 10] [µM] | IC50 ([3]; MDA-MB-231, 24 h exposure) [µM] | IC50 ([3]; MDA-MB-231, 72 h exposure) [µM] | Growth Inhibition IC50 ([3]; MDA-MB-231, 24 h exposure) | Growth Inhibition IC50 ([3]; MDA-MB-231, 72 h exposure) | EC50 ([4]; SK-BR-3, 24 h exposure) [µM] | EC50 ([4]; SK-BR-3, 72 h exposure) [µM] | cytotoxicity EC50 ([4]; SK-BR-3, at 24 or 72 h) | EC50 at 24 h ([5]; 24 h exposure) [µM] | EC50 at 24 h ([5]; head prints 24 h) [µM] | IC50 [6, 11] [µM] | IC50 [6, 12] [µM] | IC50 ([7]; 24 h exposure) [µM] | IC50 ([7]; 72 h exposure) [µM] | EC50 [8, 13] [µM] | EC50 [8, 14] [µM] | EC50 for MCF-7 cytotoxicity ([8]; MCF-7, 72 h exposure) | also measured
1 | C=C(C[C@H](N)C(=O)O)C(N)=O [Compound 1, (S)-2-amino-4-carbamoylpent-4-enoic acid] | 7.9 | 11.3 | 8.9 | 320 | 141 | 585 | potency that was commensurate to tamoxifen | longer-term performance commensurate to olaparib; also recorded: as efficacious as olaparib | 0.2 | 2 | commensurate EC50's at 24 or 72 h | > 1000 | > 1000 | 459 | 609 | > 1000 | > 1000 | 152 | 3 | significantly lower than tamoxifen | –
2 | C=C(C[C@H](N)C(=O)O)C(=O)NCc1ccc([N+](=O)[O-])cc1 [Compound 6, (S)-2-amino-4-((4-nitrobenzyl)carbamoyl) pent-4-enoic acid] | 12.8 | 3.2 | 150 | 270 | 216 | 368 | potency that was commensurate to tamoxifen | longer-term performance commensurate to olaparib; also recorded: as efficacious as olaparib | 0.3 | 0.4 | commensurate EC50's at 24 or 72 h | > 1000 | > 1000 | 457 | 534 | > 1000 | > 1000 | 485 | 20.4 | – | –
3 | C=C(C[C@H](N)C(=O)O)C(=O)NC1CC1 [Compound 7, (S)-2-amino-4-(cyclopropylcarbamoyl) pent-4-enoic acid] | 314 | 0.6 | 933 | > 1000 | 649 | 922 | – | poorer potency than olaparib | 272 | > 1000 | – | > 1000 | > 1000 | 231 | 416 | > 1000 | > 1000 | 64.1 | 508 | – | cytotoxicity EC50 [4, 15]: much reduced toxicity; Growth Inhibition IC50 ([6]; MCF-7, 72 h exposure): significantly less potent than tamoxifen; EC50 ([8]; MCF-7, 24 h exposure, read-out: EC50 for cytotoxicity): 64 µM
4 | C=C(C[C@H](N)C(=O)O)C(=O)N1CCCCC1 [Compound 8, (S)-2-amino-4-(piperidine-1-carbonyl) pent-4-enoic acid] | 133 | 0.6 | > 1000 | > 1000 | 685 | 813 | poorer potency than both tamoxifen or olaparib | poorer potency than olaparib | 0.1 | > 1000 | – | > 1000 | > 1000 | 434 | 606 | > 1000 | > 1000 | 197 | 198 | did not change | cytotoxicity EC50 [4, 15]: much reduced toxicity; Growth Inhibition IC50 ([6]; MCF-7, 72 h exposure): significantly less potent than tamoxifen
5 | C=C(C[C@H](N)C(=O)O)C(=O)Nc1ccc(F)cc1 [Compound 9, (S)-2-amino-4-((4-fluorophenyl)carbamoyl) pent-4-enoic acid] | 11.4 | 4.7 | > 1000 | 450 | 652 | 419 | – | – | 0.2 | 0.1 | commensurate EC50's at 24 or 72 h | > 1000 | > 1000 | 414 | 76 | > 1000 | > 1000 | 161 | 2.3 | significantly lower than tamoxifen | growth inhibition potency compared with olaparib ([3]; MDA-MB-231, throughout testing (24 h and 72 h)): equipotent to olaparib
6 | C=C(C[C@H](N)C(=O)O)C(=O)Nc1ccc(Cl)cc1 [Compound 10, (S)-2-amino-4-((4-chlorophenyl)carbamoyl) pent-4-enoic acid] | 78.7 | 4 | > 1000 | > 1000 | 867 | 712 | poorer potency than both tamoxifen or olaparib | poorer potency than olaparib | 262 | > 1000 | – | > 1000 | > 1000 | 397 | 171 | > 1000 | > 1000 | 205 | 93.2 | – | cytotoxicity EC50 [4, 15]: much reduced toxicity
7 | O=C(c1cc(Cc2n[nH]c(=O)c3ccccc23)ccc1F)N1CCN(C(=O)C2CC2)CC1 [Olaparib, reference compound] | 1.6 | 1.1 | 61.2 | 97.1 | 161 | 154 | – | – | > 1000 | 0.1 | – | 511 | > 1000 | > 1000 | – | > 1000 | > 1000 | > 1000 | 26.5 | micromolar EC50 | EC50 [2, 16]: ≤ 100 µM; cytotoxicity ([4]; SK-BR-3, 24 h exposure): neither tamoxifen nor olaparib were cytotoxic; EC50 at 24 h ([5]; within the first 24 h): 268 to 511 µM; IC50 ([6]; MCF-7, 72 h exposure): 108 µM; EC50 for cytotoxicity ([8]; MCF-7, 24 h exposure): neither tamoxifen nor olaparib were cytotoxic
8 | CC/C(=C(\c1ccccc1)c1ccc(OCCN(C)C)cc1)c1ccccc1 [Tamoxifen, reference compound] | – | – | 26 | 30.9 | – | – | – | – | > 1000 | 0.3 | – | 268 | > 1000 | – | – | – | – | > 1000 | – | micromolar EC50 | EC50 [2, 16]: ≤ 100 µM; cytotoxicity ([4]; SK-BR-3, 24 h exposure): neither tamoxifen nor olaparib were cytotoxic; EC50 at 24 h ([5]; within the first 24 h): 268 to 511 µM; EC50 for cytotoxicity ([8]; MCF-7, 24 h exposure): neither tamoxifen nor olaparib were cytotoxic

— patent US12435032B2, “L-γ-methyleneglutamine compounds and methods of use” (University of Mississippi, priority 2019, dated 2025)
